Columns and labels:
Mouse STC-1 cells = assay: STC-1 GLP-1 assay (GLP-1 secretion); format: cell-based; details: Mouse STC-1 cells, GLP-1 secretion, 2 h; read-out: Mouse STC-1 HTRF GLP-1 Activity (EC50)
How it was run: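 Mouse STC-1 cells were plated two days ahead in DMEM with 10% charcoal-dextran stripped FBS, then exposed to compound in HBSS with protease inhibitors, DPP-IV inhibitor and 0.1% fatty acid free BSA for 2 h at 37° C. Active GLP-1 in supernatant was quantified by HTRF; EC50 derived from 12-point half-log curves.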

human TGR5 receptor = target: T1, human TGR5 receptor (Homo sapiens, UniProt Q8TDU6); assay: Human TGR5 cAMP production assay (hTGR5-CHO cells, DiscoveRx cAMP XS+ kit); format: cell-based; details: luminescent cAMP assay, read-out: Human TGR5 Lum. cAMP Activity (EC50)
T1 construct: host or cells: CHO-K1 (hTGR5-CHO)
T1 sequence (Q8TDU6 1-330): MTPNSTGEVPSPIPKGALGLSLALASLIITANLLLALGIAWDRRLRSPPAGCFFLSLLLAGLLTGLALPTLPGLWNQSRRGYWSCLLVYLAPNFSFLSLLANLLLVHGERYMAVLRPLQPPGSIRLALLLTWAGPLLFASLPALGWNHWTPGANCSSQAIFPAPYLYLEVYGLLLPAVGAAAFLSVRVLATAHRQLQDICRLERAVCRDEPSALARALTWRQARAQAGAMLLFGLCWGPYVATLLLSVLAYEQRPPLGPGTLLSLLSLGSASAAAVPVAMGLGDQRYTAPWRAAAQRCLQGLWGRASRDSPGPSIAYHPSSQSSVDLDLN
How it was run: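 CHO-K1 cells stably expressing hTGR5, in PBS with IBMX and cAMP antibody, treated with half-log compound dilutions for 1 h at room temperature. cAMP measured by enzyme-fragment complementation luminescence after overnight detection; EC50 values reported.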

mouse TGR5 receptor = target: T2, mouse TGR5 receptor (Mus musculus, UniProt Q80SS6); assay: Mouse TGR5 luminescent cAMP production assay (HEK293-EBNA cells, DiscoveRx cAMP XS+ kit); format: cell-based; details: HEK293-EBNA cells overexpressing mouse TGR5, luminescent cAMP assay; read-out: Mouse TGR5 Lum. cAMP Activity (EC50)
T2 construct: host or cells: HEK293-EBNA (293 c18, ATCC CRL10852)
T2 sequence (Q80SS6 1-329): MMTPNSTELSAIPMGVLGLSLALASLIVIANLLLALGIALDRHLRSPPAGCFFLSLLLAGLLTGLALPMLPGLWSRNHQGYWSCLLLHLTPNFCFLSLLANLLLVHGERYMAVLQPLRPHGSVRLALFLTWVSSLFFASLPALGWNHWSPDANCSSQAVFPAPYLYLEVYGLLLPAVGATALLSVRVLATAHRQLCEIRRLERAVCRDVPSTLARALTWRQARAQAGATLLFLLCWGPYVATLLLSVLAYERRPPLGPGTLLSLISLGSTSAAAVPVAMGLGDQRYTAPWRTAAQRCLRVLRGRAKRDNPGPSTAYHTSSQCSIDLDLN
How it was run: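 HEK293-EBNA cells stably expressing mouse TGR5, resuspended in serum-free DMEM with 500 μM IBMX, were premixed 20 min with cAMP antibody, then exposed to half-log compound dilutions for 1 h at room temperature. cAMP was read by luminescent enzyme-fragment complementation (cAMP XS+) after overnight incubation; EC50 derived.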

[1] = Absorption vs. first pass metabolism: Cmax in ICR mice with and without 1-aminobenzotriazole (ABT) pre-treatment; format: in vivo, mouse; details: 10 mg/kg p.o., ABT 150 mg/kg 2 h before
Experimental: Absorption Vs. First Pass Metabolism
In this study, we further examined the absorption as compared to first pass metabolism of the compounds of the present invention. ICR mice (Hilltop) were pre-treated with 1-aminobenzotriazole (ABT), a nonselective inhibitor of cytochrome P450 enzymes, to inhibit Cyp450-mediated degradation of the compounds in liver.
ABT was administered at 150 mg/kg in 5 mL/kg of 0.04% ethanol in 0.5% methyl cellulose (w/v) by oral gavage, 2 hours prior to test compound administration. The compounds (i.e., Compounds 56, 268, 249, 61, 126, and 199) were administered by oral gavage at 10 mg/kg in 10 mL/kg of 20% PEG400/80% (0.5% (w/v) CMC containing 0.25% (v/v) Tween 80) (v/v), 2 hours after the ABT treatment. Blood was collected via orbital bleeding at predose, 0.25, 0.5, 1, 2, and 4 hours post-dose and the quantification of compound levels in plasma was accomplished by means of LC-MS/MS analysis as described in Example 81. Reference compound “Propranolol” that is known to be metabolized by Cyp450 was used as a positive control.
FIG. 15 depicts the Cmax (nM) of the compounds of the present invention with and without ABT pre-treatment.

[2] = 6-week DEXA body composition analysis in DIO mice; format: in vivo, mouse; details: 6 weeks BID dosing
Text: In the next series of studies (Examples 93-99), Male DIO mice were received at 12 weeks of age (from Taconic), and were single-housed at the testing facility and acclimated for at least 2 weeks. The mice were provided a high fat diet [Research Diet D12492 (60% Fat kcal)] while in the testing facility. Before the study initiation, the animals were randomized into 5 experimental groups by body weight. The vehicle group contained only 0.5% carboxymethylcellulose (medium viscosity)+0.25% Tween-80. The second group contained 10 mg/kg of the DPP-IV inhibitor Sitagliptin while the third group contained 30 mg/kg Compound 268. The fourth group contained the combination of 10 mg/kg Sitagliptin and 30 mg/kg Compound 268. The fifth group was the positive control for weight loss, Rimonabant. All mice were dosed BID at approximately 6:00 am and again at approximately 4:00 pm. The positive control rimonabant was administered at a dose of 10 mg/kg in the afternoon and the morning dosing was vehicle (no compound).
6-Week Dexa Analysis after Multiple Weeks of Dosing Compounds
Compounds of the present invention were dosed for multiple weeks and the mice were analyzed to determine whether weight loss seen in Example 93 was due to a loss in fat or lean mass.
In this example, the protocol from Example 93 was utilized. The day of experiment, the mice were anesthetized using 2.5% avertin [tert-amyl alcohol (Aldrich #15,256-3) and 2,2,2-tribromoethanol (Aldrich # T4, 840-2)]. Their body composition was assessed using the PIXImus2 X-ray unit (GE Lunar Corporation, Madison, Wis.) connected to a computer equipped with LUNAR PIXImus2 software. The head region of each mouse was excluded from the analysis. The following measurements were automatically measured or calculated by the PIXImus2 software: bone mineral density (BMD), bone mineral content (BMC), bone area (B Area), tissue area (T Area), percent fat, and total tissue mass (TTM). Fat mass, the percentage of lean mass, and lean mass, were calculated manually as follows: % Lean=100−% Fat Lean Mass=TTM×(100−% Fat) Fat Mass=TTM×% Fat

| Compound | EC50 (Mouse STC-1 cells) | EC50 (human TGR5 receptor) | EC50 (mouse TGR5 receptor) | Cmax with versus without ABT pre-treatment [1] | fat mass versus lean mass (DEXA) [2] | loss in weight / total tissue mass (DEXA) [2] |
| --- | --- | --- | --- | --- | --- | --- |
| N#Cc1ccc(CCNC(=O)[C@@H]2CCCN2c2cc(N3CCC(CN)CC3)nc(C(F)(F)F)n2)cc1 [Compound 47, (S)-1-(6-(4-(aminomethyl)piperidin-1-yl)-2-(trifluoromethyl)pyrimidin-4-yl)-N-(4-cyanophenethyl)pyrrolidine-2-carboxamide] | 1000 to 30000 nM | < 100 nM | 100 to 999 nM |  |  |  |
| N#Cc1ccc(CCNC(=O)[C@@H]2CCCN2c2cc(-c3ccc(CO)cc3)nc(C(F)(F)F)n2)cc1 [Compound 146, (S)-N-(4-cyanophenethyl)-1-(6-(4-(hydroxymethyl)phenyl)-2-(trifluoromethyl)pyrimidin-4-yl)pyrrolidine-2-carboxamide] | 1000 to 30000 nM | < 100 nM | < 100 nM |  |  |  |
| CS(=O)(=O)c1ccc(-c2cc(N3CCC[C@H]3C(=O)NCCc3ccc(C#N)cc3)nc(C(F)(F)F)n2)cc1 [Compound 152, (S)-N-(4-cyanophenethyl)-1-(6-(4-(methylsulfonyl)phenyl)-2-(trifluoromethyl)pyrimidin-4-yl)pyrrolidine-2-carboxamide] | 100 to 999 nM | 100 to 999 nM | < 100 nM |  |  |  |
| O=C(NCCc1ccc(C(F)(F)F)cc1)[C@@H]1CCN1c1cc(N2CCC(CO)CC2)nc(C(F)(F)F)n1 [Compound 220, (S)-1-(6-(4-(hydroxymethyl)piperidin-1-yl)-2-(trifluoromethyl)pyrimidin-4-yl)-N-(4-(trifluoromethyl)-phenethyl)azetidine-2-carboxamide] | < 100 nM | < 100 nM | < 100 nM |  |  |  |
| N#Cc1ccc(CCNC(=O)[C@@H]2CCCN(c3cc(N4CCC(CCO)CC4)nc(C(F)(F)F)n3)C2)cc1 [Compound 309, (R)-N-(4-cyanophenethyl)-1-(6-(4-(2-hydroxyethyl)piperidin-1-yl)-2-(trifluoromethyl)pyrimidin-4-yl)piperidine-3-carboxamide] | 100 to 999 nM | < 100 nM | < 100 nM |  |  |  |
| O=C(NCCc1ccc(C(F)(F)F)cc1)[C@@H]1CCCN(c2cc(N3CCC(CO)CC3)nc(C(F)(F)F)n2)C1 [Compound 329, (R)-1-(6-(4-(hydroxymethyl)piperidin-1-yl)-2-(trifluoromethyl)pyrimidin-4-yl)-N-(4-(trifluoromethyl)-phenethyl)piperidine-3-carboxamide] | 100 to 999 nM | < 100 nM | < 100 nM |  |  |  |
| CC(C)NCC(O)COc1cccc2ccccc12 (stereo not drawn) [propranolol, Propranolol] |  |  |  | significantly higher in ABT pre-treated mice |  |  |
| N[C@@H](CC(=O)N1CCn2c(nnc2C(F)(F)F)C1)Cc1cc(F)c(F)cc1F [sitagliptin, Sitagliptin, reference compound] |  |  |  |  | due to a loss in the Fat Mass | about the same loss in weight |

— patent US10654834B2 (Venenum Biodesign, LLC, priority 2016, dated 2020)
